How the values were obtained:
[1] = target: T1, Apoptosis regulator Bcl-2 (Homo sapiens, UniProt P10415); experiment: Inhibition of Bcl-2 (unknown origin) by fluorescence polarization assay
K562 = experiment: Antiproliferative activity against human K562 cells by MTT assay; format: functional, cell-based
Bcl-2-like protein 1 = Bcl-2-like protein 1 (Homo sapiens, UniProt Q07817); experiment: Inhibition of Bcl-xL (unknown origin) by fluorescence polarization assay
[2] = target: Induced myeloid leukemia cell differentiation protein Mcl-1 (Homo sapiens, UniProt Q07820); experiment: Inhibition of Mcl-1 (unknown origin) by fluorescence polarization assay
Sequence of Induced myeloid leukemia cell differentiation protein Mcl-1 (Q07820 whole entry): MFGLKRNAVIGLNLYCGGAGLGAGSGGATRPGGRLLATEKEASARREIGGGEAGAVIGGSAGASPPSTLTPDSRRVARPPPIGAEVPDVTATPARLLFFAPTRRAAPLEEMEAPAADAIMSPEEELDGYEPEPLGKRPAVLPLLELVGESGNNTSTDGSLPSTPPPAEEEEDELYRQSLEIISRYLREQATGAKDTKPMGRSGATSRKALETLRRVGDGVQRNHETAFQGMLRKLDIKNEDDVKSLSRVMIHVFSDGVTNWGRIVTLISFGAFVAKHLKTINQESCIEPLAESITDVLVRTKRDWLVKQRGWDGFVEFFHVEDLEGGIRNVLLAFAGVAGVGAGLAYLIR

MDA-MB-231 = experiment: Antiproliferative activity against human MDA-MB-231 cells by MTT assay; format: functional, cell-based
PC-3 = experiment: Antiproliferative activity against human PC3 cells by MTT assay; format: functional, cell-based
[3] = target: T1, Apoptosis regulator Bcl-2; experiment: Inhibition of Bcl-2 (unknown origin) at 100 uM by fluorescence polarization assay

Sequence of Bcl-2-like protein 1 (Q07817 whole entry): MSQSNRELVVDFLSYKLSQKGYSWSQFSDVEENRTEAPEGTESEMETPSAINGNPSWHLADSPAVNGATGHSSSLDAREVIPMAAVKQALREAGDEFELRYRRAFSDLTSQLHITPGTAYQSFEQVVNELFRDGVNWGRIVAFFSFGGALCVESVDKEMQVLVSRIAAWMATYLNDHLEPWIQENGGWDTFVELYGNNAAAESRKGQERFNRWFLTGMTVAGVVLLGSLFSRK
T1 sequence (P10415 whole entry): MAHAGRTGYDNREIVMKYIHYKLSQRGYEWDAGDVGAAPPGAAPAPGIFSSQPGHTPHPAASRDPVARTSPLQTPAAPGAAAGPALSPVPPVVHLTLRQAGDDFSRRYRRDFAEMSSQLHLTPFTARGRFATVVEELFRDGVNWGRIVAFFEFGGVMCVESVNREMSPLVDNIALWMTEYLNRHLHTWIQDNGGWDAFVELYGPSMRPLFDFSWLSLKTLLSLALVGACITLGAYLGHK

Compound | Ki [1] [µM] | also measured
Cc1cccc(C)c1N1C(=O)/C(=C/c2ccc(OCc3ccc(C(=O)O)cc3)cc2)SC1=S | 0.9 | IC50 (K562): 46.6 µM; Ki (Bcl-2-like protein 1): 3.9 µM; Ki [2]: 0.72 µM; IC50 (MDA-MB-231): 25.6 µM; IC50 (PC-3): 25.8 µM
O=C(O)c1ccc(COc2cccc(/C=C3\SC(=S)N(c4ccc([N+](=O)[O-])cc4)C3=O)c2)cc1 | > 10 | –
Cc1cccc(N2C(=O)/C(=C/c3ccc(OCC(=O)Nc4ccc(C(=O)O)cc4)cc3)SC2=S)c1 | > 10 | –
O=C(O)c1ccc(COc2ccc(/C=C3\SC(=S)N(c4ccc(I)cc4)C3=O)cc2)cc1 | 4.3 | Ki (Bcl-2-like protein 1): > 10 µM; Ki [2]: 1.6 µM
O=C(O)c1ccc(COc2ccc(/C=C3\SC(=S)N(c4c(F)cccc4F)C3=O)cc2)cc1 | > 10 | –
O=C(O)c1ccc(COc2ccc(/C=C3\SC(=S)N(c4ccccc4)C3=O)cc2)cc1 | > 10 | –
O=C(COc1ccc(/C=C2\SC(=S)N(c3ccc([N+](=O)[O-])cc3)C2=O)cc1)Nc1ccc(C(=O)O)cc1 | > 10 | –
O=C(O)c1ccc(COc2ccc(/C=C3\SC(=S)N(c4cccc([N+](=O)[O-])c4)C3=O)cc2)cc1 | 9.6 | –
COc1ccccc1N1C(=O)/C(=C/c2ccc(OCC(=O)Nc3ccc(C(=O)O)cc3)cc2)SC1=S | 10 | –
Cc1cccc(C)c1N1C(=O)/C(=C/c2ccc(OCC(=O)Nc3ccc(C(=O)O)cc3)cc2)SC1=S | 7.6 | –
O=C(O)c1ccc(COc2ccc(/C=C3\SC(=S)N(c4ccc(F)cc4)C3=O)cc2)cc1 | > 10 | –
O=C(O)c1ccc(COc2ccc(/C=C3\SC(=S)N(Cc4ccc(F)cc4)C3=O)cc2)cc1 | > 10 | –
Cc1ccc(S(=O)(=O)NC(=O)[C@H](Cc2ccccc2)N2C(=O)/C(=C/c3ccc(-c4ccccc4)cc3)SC2=S)cc1 | 0.5 | IC50 (K562): 32.8 µM; Ki (Bcl-2-like protein 1): 0.57 µM; Ki [2]: 0.29 µM; IC50 (MDA-MB-231): > 30 µM; IC50 (PC-3): > 30 µM
COc1ccccc1N1C(=O)/C(=C/c2cccc(OCc3ccc(C(=O)O)cc3)c2)SC1=S | 1.6 | Ki (Bcl-2-like protein 1): > 10 µM; Ki [2]: 3.7 µM
O=C(O)c1ccc(COc2ccc(/C=C3\SC(=S)N(c4ccc(Cl)cc4)C3=O)cc2)cc1 | > 10 | –
O=C(O)c1ccc(COc2ccc(/C=C3\SC(=S)N(c4cccc(C(F)(F)F)c4)C3=O)cc2)cc1 | > 10 | –
O=C(O)c1ccc(COc2ccc(/C=C3\SC(=S)N(c4ccc(Br)cc4)C3=O)cc2)cc1 | 0.61 | IC50 (K562): 43.8 µM; Ki (Bcl-2-like protein 1): > 10 µM; Ki [2]: 0.7 µM; IC50 (MDA-MB-231): 19.8 µM; IC50 (PC-3): 18.9 µM

Compound | Ki [1] [µM] | also measured
CC(=O)c1ccc(N2C(=O)/C(=C/c3ccc(OCc4ccc(C(=O)O)cc4)cc3)SC2=S)cc1 | > 10 | –
O=C(Nc1ccc(O)c(C(=O)O)c1)c1ccc(/C=C2\SC(=S)N(c3ccccc3)C2=O)cc1 | > 10 | –
O=C(COc1ccc(/C=C2\SC(=S)N(c3ccccc3)C2=O)cc1)Nc1ccc(C(=O)O)cc1 | > 10 | –
O=C(O)c1ccc(COc2ccc(/C=C3\SC(=S)N(c4ccc([N+](=O)[O-])cc4)C3=O)cc2)cc1 | > 10 | –
COc1ccc(N2C(=O)/C(=C/c3ccc(OCc4ccc(C(=O)O)cc4)cc3)SC2=S)cc1 | > 10 | –
O=C(O)c1ccc([N+](=O)[O-])c(COc2ccc(/C=C3\SC(=S)N(c4ccccc4)C3=O)cc2)c1 | 9 | –
O=C(O)c1ccc(COc2cccc(/C=C3\SC(=S)N(c4ccccc4)C3=O)c2)cc1 | > 10 | –
Cc1ccccc1N1C(=O)/C(=C/c2cccc(OCc3ccc(C(=O)O)cc3)c2)SC1=S | 3.1 | Ki (Bcl-2-like protein 1): > 10 µM; Ki [2]: 3.2 µM
Cc1ccc(N2C(=O)/C(=C/c3ccc(OCC(=O)Nc4ccc(C(=O)O)cc4)cc3)SC2=S)cc1 | > 10 | –
Cc1cccc(N2C(=O)/C(=C/c3ccc(OCc4ccc(C(=O)O)cc4)cc3)SC2=S)c1 | > 10 | –
Cc1cc2c(C(C)C)c(O)c(O)c(C=O)c2c(O)c1-c1c(C)cc2c(C(C)C)c(O)c(O)c(C=O)c2c1O [GOSSYPOL] | – | IC50 (K562): 7.31 µM; Ki (Bcl-2-like protein 1): 0.64 µM; Ki [2]: 0.31 µM; IC50 (MDA-MB-231): 4.8 µM; IC50 (PC-3): 5.61 µM
Cc1ccc(N2C(=O)/C(=C/c3ccc(OCc4ccc(C(=O)O)cc4)cc3)SC2=S)cc1 | > 10 | –
O=C(O)c1ccc(/C=C2\SC(=S)N(c3ccccc3)C2=O)cc1 | > 10 | inhibition [3]: 18%
O=C(O)c1ccc([N+](=O)[O-])c(COc2ccc(/C=C3\SC(=S)N(c4ccc([N+](=O)[O-])cc4)C3=O)cc2)c1 | 3.1 | –
COc1ccccc1N1C(=O)/C(=C/c2ccc(OCc3ccc(C(=O)O)cc3)cc2)SC1=S | 2 | Ki (Bcl-2-like protein 1): > 10 µM; Ki [2]: 3.9 µM
O=C(Nc1ccc(O)c(C(=O)O)c1)c1ccc(/C=C2\SC(=S)N(c3ccc([N+](=O)[O-])cc3)C2=O)cc1 | > 10 | –
Cc1ccccc1N1C(=O)/C(=C/c2ccc(OCC(=O)Nc3ccc(C(=O)O)cc3)cc2)SC1=S | > 10 | –

Reference: ChEMBL document CHEMBL3627699, “Design, synthesis and biological evaluation of 3-aryl-rhodanine benzoic acids as anti-apoptotic protein Bcl-2 inhibitors” (Bioorg Med Chem Lett, 2015)
